Assay results from ChEMBL document CHEMBL1201862, “PubChem BioAssay data set” (2004).
The source made the active and inactive calls.

Legend:
[1] = molecular target: T1, Histone-lysine N-methyltransferase NSD2 (Homo sapiens, UniProt O96028); format: biochemical
T1 sequence (O96028 whole entry): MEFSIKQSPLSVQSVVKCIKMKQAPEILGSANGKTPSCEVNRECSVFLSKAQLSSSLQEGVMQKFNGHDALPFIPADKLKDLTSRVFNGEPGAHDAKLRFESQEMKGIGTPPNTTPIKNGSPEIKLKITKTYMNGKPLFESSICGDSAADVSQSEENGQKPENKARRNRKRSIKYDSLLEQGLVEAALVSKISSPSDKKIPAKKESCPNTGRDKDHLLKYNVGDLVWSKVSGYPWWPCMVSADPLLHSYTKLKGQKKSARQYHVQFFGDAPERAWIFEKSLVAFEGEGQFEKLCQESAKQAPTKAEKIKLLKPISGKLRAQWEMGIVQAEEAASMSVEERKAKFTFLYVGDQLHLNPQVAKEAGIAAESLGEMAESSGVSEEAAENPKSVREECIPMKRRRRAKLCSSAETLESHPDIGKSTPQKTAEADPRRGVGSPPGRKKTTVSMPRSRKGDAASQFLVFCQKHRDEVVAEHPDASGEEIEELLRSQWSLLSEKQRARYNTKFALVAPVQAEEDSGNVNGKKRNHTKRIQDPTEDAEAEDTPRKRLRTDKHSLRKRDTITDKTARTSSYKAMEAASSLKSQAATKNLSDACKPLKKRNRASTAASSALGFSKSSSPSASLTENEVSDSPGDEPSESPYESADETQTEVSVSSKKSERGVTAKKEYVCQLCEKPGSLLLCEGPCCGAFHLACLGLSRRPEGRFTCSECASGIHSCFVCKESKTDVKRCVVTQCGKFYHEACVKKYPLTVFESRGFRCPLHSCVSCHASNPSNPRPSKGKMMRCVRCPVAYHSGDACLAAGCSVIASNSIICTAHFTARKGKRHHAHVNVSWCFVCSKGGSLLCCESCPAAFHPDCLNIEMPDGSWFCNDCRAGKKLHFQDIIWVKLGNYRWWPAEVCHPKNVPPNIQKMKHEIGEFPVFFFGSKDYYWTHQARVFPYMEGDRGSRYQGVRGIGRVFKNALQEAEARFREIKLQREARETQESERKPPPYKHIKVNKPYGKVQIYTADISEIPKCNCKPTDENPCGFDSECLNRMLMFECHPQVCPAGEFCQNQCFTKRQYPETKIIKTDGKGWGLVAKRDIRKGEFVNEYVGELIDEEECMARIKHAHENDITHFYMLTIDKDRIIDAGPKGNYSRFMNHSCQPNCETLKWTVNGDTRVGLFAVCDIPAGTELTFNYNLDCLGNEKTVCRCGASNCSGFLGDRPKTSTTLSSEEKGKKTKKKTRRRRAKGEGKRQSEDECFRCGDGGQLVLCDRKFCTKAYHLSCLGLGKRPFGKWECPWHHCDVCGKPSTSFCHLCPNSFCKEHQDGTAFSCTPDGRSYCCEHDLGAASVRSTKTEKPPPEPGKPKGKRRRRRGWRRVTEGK

[2] = molecular target: T2, Sentrin-specific protease 8 (Homo sapiens, UniProt Q96LD8); format: functional
T2 sequence (Q96LD8 whole entry): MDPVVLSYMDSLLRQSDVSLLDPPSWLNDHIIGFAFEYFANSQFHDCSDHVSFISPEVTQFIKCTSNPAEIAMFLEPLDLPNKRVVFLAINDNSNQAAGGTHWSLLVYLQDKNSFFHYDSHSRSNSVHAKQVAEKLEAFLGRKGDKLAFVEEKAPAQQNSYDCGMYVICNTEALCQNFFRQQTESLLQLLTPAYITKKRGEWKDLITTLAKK

[3] = molecular target: T2, Sentrin-specific protease 8; format: functional; remark: listed apart in the source
[4] = test system: Streptococcus sp. 'group A'; assay: growth inhibition of control SK(-) GAS strain, dose response, counter-screen for streptokinase expression inhibitor project, luminescence, kanamycin, BacTiterGlo, confirmation (AID 1900); format: functional, organism-based
[5] = inhibitors of intracellular T. cruzi replication, confirmation, NIH3T3 host cells, beta-gal luminescence (AID 2044); format: functional, cell-based;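 also: intracellular parasites grown in NIH/3T3 mouse fibroblasts as host cells; luminescent beta-galactosidase reporter signal from transgenic T. cruzi replicating inside host cells; inhibitors lower the luminescence signal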
Streptococcus = assay: Group A Streptococcus viability loss, dose response, counter-screen for streptokinase expression inhibitor project, luminescence, BacTiterGlo (AID 1915); format: functional, organism-based;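 also: potency for reduction of bacterial viability or growth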
Vero = assay: cells; format: functional; settings: Chlorocebus sabaeus
[6] = human group III sPLA2 inhibitors, dose response, biochemical, QFRET, IC50 (AID 743457);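 also: green fluorescence rise as the enzyme cleaves BODIPY PC-A2 in liposomes; potency for inhibition of the enzyme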
[7] = molecular target: T3, Methionyl-tRNA synthetase, putative (Trypanosoma brucei brucei, UniProt Q38C91); format: functional, Trypanosoma brucei brucei strain 927/4 GUTat10.1
T3 sequence (Q38C91 whole entry): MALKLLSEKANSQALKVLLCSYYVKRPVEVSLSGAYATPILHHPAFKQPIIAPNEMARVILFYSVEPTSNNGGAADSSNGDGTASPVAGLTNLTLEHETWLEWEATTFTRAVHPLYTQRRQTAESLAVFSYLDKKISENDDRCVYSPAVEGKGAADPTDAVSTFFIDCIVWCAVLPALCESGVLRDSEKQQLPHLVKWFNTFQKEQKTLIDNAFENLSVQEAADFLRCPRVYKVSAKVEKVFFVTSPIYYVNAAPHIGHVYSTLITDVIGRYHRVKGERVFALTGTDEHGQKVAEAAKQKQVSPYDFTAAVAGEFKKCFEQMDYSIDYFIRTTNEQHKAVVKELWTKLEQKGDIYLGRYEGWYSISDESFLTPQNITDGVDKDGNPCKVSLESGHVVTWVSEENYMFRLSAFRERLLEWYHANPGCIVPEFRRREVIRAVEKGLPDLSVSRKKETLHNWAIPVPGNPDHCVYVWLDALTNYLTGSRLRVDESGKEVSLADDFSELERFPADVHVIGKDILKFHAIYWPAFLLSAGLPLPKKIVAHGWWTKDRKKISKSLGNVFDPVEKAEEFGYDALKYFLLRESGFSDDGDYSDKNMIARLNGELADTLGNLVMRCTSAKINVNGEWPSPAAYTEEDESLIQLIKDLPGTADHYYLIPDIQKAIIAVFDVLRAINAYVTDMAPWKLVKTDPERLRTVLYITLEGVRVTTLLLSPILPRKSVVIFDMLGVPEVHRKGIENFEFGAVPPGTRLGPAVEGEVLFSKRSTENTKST

[8] = Counterscreen for inhibitors of Trypanosoma brucei methionyl tRNA synthetase (MetRS): Luminescence-based cell-based high throughput dose response assay to identify compounds that are cytotoxic to Jurkat human T lymphocyte cells.; format: functional
[9] = molecular target: T3, Methionyl-tRNA synthetase, putative; format: functional, Trypanosoma brucei brucei strain 927/4 GUTat10.1; remark: listed apart in the source
Beta-galactosidase = Beta-galactosidase (Escherichia coli, UniProt Q8VNN2); assay: Dose response counterscreen for EBI2 assay utilizing the enzyme, b-galactosidase.; format: functional
[10] = HEp-2 cell cytotoxicity, dose response, cytotoxicity control for RSV inhibitor project, HTS (AID 2410); format: functional; settings: human respiratory syncytial virus
[11] = molecular target: FAD-linked sulfhydryl oxidase ALR (Homo sapiens, UniProt P55789); assay: inhibitors of human ALR sulfhydryl oxidase, dose response, biochemical, H2O2 detection, luminescence, cherry-pick (AID 493248)
[12] = molecular target: T4, Corticotropin-releasing factor receptor 2/Corticotropin-releasing factor-binding protein (Homo sapiens, UniProt P24387+Q13324); assay: Dose Response confirmation of uHTS hits for small molecule antagonists of the CRF-binding protein and CRF-R2 receptor complex.; format: functional; settings: read-out: IC50_Mean
T4 sequence (Q13324 whole entry): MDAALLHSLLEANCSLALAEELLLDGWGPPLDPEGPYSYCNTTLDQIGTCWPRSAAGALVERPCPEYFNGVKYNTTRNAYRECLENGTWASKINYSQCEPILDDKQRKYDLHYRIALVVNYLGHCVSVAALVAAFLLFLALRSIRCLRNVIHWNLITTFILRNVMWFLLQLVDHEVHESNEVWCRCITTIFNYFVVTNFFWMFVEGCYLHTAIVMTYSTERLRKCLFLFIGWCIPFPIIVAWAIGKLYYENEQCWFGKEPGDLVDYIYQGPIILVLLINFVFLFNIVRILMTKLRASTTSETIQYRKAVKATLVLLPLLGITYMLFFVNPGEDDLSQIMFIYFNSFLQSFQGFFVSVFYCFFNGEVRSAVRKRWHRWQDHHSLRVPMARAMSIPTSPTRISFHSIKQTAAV
T4 sequence (P24387 whole entry): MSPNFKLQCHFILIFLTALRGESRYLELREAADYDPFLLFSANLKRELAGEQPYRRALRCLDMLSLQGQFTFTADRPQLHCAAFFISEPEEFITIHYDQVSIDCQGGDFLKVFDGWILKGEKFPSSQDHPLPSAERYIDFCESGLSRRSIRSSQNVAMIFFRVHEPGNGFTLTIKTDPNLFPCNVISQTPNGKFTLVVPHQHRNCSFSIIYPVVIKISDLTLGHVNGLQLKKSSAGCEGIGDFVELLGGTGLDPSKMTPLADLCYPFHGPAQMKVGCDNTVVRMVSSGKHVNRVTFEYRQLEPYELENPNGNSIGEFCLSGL

[13] = molecular target: T4, Corticotropin-releasing factor receptor 2/Corticotropin-releasing factor-binding protein; assay: activators of CRF receptor 2 with binding protein – uHTS hits, confirmation (AID 602473); format: functional; settings: read-out: EC50_Mean
[14] = CRF-BP/CRF-R2 complex antagonists, dose response, cell-based, uHTS hits, 384-well (AID 651639); format: functional, Homo sapiens; settings: read-out: IC50_Mean
cells [15] = format: functional, cell-based
[16] = molecular target: T5, Trace amine-associated receptor 1 (Homo sapiens, UniProt Q96RJ0); assay: Fluorescence-based cell-based high throughput dose response assay to identify agonists of the human trace amine associated receptor 1 (TAAR1).; format: functional
T5 sequence (Q96RJ0 whole entry): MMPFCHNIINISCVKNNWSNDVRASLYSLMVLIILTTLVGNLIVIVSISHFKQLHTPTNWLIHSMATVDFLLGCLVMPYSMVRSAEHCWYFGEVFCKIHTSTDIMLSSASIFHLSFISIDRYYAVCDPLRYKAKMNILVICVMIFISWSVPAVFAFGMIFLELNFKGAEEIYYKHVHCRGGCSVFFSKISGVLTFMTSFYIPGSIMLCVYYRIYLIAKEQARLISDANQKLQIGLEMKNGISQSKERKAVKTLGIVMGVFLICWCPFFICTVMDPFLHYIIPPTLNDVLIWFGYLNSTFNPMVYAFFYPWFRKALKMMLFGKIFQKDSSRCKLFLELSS

[17] = molecular target: T5, Trace amine-associated receptor 1; assay: Counterscreen for agonists of the human trace amine associated receptor 1 (hTAAR1): Fluorescence-based cell-based high throughput dose response assay to identify hTAAR1 agonist that also desensitize TAAR1 receptor response.; format: functional
cells [18] = format: functional, cell-based; remark: listed apart in the source
Paired box protein Pax-8 = Paired box protein Pax-8 (Homo sapiens, UniProt Q06710); assay: inhibitors of PAX8-driven TPO luciferase reporter, dose response, RMG-I cells, cherry-pick (AID 687027); format: functional, cell-based;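 also: luciferase reporter driven by Pax8 target thyroperoxidase promoter measured by SteadyGlo luminescence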
[19] = A2780 ovarian cancer cell cytotoxicity, dose response, cytotoxicity control, plate reader, dry powder samples (AID 743046); format: functional, cell-based
[20] = NIH:OVCAR-3 ovarian cancer cell cytotoxicity, dose response, PAX8 inhibitor project, plate reader, dry powder samples (AID 743044); format: functional, cell-based
[21] = IGROV1 ovarian cancer cell cytotoxicity, dose response, PAX8 inhibitor project, plate reader, dry powder samples (AID 743043); format: functional, cell-based; settings: IGROV-1

Beta-galactosidase, sequence (Q8VNN2 whole entry): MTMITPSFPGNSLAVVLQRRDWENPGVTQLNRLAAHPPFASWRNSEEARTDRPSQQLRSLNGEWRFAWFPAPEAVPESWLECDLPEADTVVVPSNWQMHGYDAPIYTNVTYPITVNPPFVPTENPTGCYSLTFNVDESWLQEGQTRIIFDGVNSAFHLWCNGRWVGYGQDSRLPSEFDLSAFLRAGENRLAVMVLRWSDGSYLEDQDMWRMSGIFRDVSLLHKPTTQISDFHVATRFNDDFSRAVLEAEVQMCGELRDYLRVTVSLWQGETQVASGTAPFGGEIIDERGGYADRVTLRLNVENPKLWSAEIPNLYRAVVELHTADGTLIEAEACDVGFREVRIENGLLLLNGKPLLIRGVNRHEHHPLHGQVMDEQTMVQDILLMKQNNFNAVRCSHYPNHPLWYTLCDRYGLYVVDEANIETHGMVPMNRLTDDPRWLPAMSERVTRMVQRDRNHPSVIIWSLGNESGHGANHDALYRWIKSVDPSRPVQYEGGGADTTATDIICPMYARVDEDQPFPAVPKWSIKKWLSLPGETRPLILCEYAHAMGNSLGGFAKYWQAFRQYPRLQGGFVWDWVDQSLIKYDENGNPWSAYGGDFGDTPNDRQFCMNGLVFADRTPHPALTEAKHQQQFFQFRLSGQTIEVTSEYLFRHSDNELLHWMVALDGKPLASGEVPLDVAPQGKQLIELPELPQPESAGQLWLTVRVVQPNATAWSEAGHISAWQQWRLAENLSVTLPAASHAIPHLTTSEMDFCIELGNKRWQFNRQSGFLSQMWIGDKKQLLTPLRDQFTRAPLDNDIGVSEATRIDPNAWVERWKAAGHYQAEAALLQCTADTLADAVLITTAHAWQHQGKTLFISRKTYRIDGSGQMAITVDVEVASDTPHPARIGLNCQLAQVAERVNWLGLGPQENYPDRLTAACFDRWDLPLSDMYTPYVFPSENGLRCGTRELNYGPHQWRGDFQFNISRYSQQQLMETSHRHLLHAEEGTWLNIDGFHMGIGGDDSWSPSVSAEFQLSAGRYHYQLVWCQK
FAD-linked sulfhydryl oxidase ALR, sequence (P55789 whole entry): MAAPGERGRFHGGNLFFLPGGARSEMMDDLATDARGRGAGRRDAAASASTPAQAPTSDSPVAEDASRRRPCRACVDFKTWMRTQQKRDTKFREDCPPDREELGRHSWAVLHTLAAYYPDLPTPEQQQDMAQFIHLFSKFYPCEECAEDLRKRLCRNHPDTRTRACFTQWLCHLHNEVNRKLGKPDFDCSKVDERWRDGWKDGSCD
Paired box protein Pax-8, sequence (Q06710 whole entry): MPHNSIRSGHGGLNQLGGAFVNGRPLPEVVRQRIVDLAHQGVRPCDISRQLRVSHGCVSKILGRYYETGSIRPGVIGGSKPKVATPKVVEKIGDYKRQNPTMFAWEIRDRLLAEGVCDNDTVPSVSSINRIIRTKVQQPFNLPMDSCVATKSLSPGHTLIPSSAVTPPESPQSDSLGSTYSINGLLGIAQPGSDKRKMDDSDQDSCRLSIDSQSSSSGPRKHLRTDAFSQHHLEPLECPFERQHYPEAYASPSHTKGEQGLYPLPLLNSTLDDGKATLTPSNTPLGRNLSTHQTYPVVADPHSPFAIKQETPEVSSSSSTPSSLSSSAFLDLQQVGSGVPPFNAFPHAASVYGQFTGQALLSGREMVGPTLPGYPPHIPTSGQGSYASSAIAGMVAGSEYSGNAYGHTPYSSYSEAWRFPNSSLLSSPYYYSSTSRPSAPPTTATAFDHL

## CN1CCN(c2ncnc3c2cnn3C)CC1
[1]
  AC50: 13.3 µM (active)

## CC(NC(=O)COC(=O)c1ccc([N+](=O)[O-])s1)c1ccccc1 (stereo not drawn)
[2]
  IC50: 6.55 µM (active)
[3]
  IC50: 17.1 µM (active)

## COc1cc(C(=O)NNC(=S)NC(=O)c2ccc(Cl)cc2)cc(OC)c1OC
[4]
  EC50: 0.822 µM (active)
[5]
  EC50: 0.756 µM (active)
Streptococcus
  EC50: 2.17 µM (active)
Vero
  CC50: > 25 µM (active)
[6]
  IC50: > 122 µM (inactive)

## Cc1cccc(OCCCC(=O)Nc2ccc(Br)cc2)c1
[7]
  IC50: 119 µM (inactive)
[8]
  IC50: 83.3 µM (inactive)
[9]
  IC50: 32 µM (inactive)

## Cc1ccc(Nc2ccc(C(=O)NCCc3ccccc3)cn2)cc1
Beta-galactosidase
  IC50: > 80 µM (inactive)

## Cc1ccc(CNC(=O)C2CCN(S(=O)(=O)c3ccc4c(c3)OCCCO4)CC2)cc1
Beta-galactosidase
  IC50: > 80 µM (inactive)

## CCN(CC)C1CCN(c2nc3nonc3nc2NCCOC)C1 (stereo not drawn)
[1]
  AC50: 14.4 µM (active)

## O=C(c1ccc(Cl)cc1)N1CCN(S(=O)(=O)/C=C/c2ccccc2)CC1
Beta-galactosidase
  IC50: > 80 µM (inactive)

## COc1ccc(-c2nnc(SC)nc2-c2ccc(OC)c([N+](=O)[O-])c2)cc1[N+](=O)[O-]
[2]
  IC50: > 100 µM (inactive)
[3]
  IC50: 46.9 µM (active)

## Cc1nn(-c2ccccc2)c(C)c1/C=N/n1c(S)nnc1-c1ccccc1Br
[10]
  CC50: 23.2 µM (active)
[11]
  AC50: 3.44 µM (active)
[12]
  IC50: 3.92 µM (active)
[13]
  EC50: > 53 µM (inactive)
[14]
  IC50: 10.9 µM (active)

## CN(CCc1ccccc1)C(=O)CC1C(=O)NCCN1Cc1ccccn1 (stereo not drawn)
Cells [15]
  IC50: > 29.9 µM (inactive)
[16]
  EC50: 3.05 µM (active)
[17]
  IC50: 9.93 µM (active)
Cells [18]
  EC50: > 29.9 µM (inactive)

## COc1ccccc1S(=O)(=O)N(C)C[C@H]1Oc2cc(C#CCC3CCCC3)ccc2S(=O)(=O)N([C@@H](C)CO)C[C@@H]1C
Paired box protein Pax-8
  AC50: 7.59 µM (active)
[19]
  AC50: 52.2 µM (active)
[20]
  AC50: 17.1 µM (active)
[21]
  AC50: 62.2 µM (active)

## CC(C)[C@H](NS(=O)(=O)c1ccc(F)cc1F)C(=O)N1CCC[C@H]1C(=O)NCCc1ccccc1Cl
Cells [15]
  IC50: > 29.9 µM (inactive)
[16]
  EC50: 2.89 µM (active)
[17]
  IC50: 4.65 µM (active)
Cells [18]
  EC50: > 29.9 µM (inactive)

## CCOC(=O)N[C@@H](Cc1cccnc1)C(=O)N1CCC[C@H]1C(=O)NCCc1ccccc1Cl
Cells [15]
  IC50: > 29.9 µM (inactive)
[16]
  EC50: 3.16 µM (active)
[17]
  IC50: 8.93 µM (active)
Cells [18]
  EC50: > 29.9 µM (inactive)
